# According to publication PMC6764326, “The Trials and Tribulations of Structure Assisted Design of KCa Channel Activators” (Frontiers in Pharmacology, 2019):
# Tests used:
# WT KCa3.1 [1] = target: T1, WT KCa3.1 (Homo sapiens, UniProt O15554+P0DP23); conditions: 100 µM EBIO; control current at 250 nM free Ca2+; wild type channel
# [2] = system: KCa3.1 over KCa2 channels; conditions: first generation activators; ref Christophersen and Wulff, 2015; cited from earlier work
# [3] = system: S372 in KCa3.1 or the corresponding S632 residue in KCa2.3 to arginine; design: method as in Brown et al., 2017; conditions: ref Brown et al., 2017; cited from earlier work
# KCa3.1 = conditions: cited from earlier work; for EC50: ref Coleman et al., 2014, read-out: Potency of KCa3.1 activation
# KCa2.2 = system: KCa2.2; design: method as in Sankaranarayanan et al., 2009; conditions: ref Sankaranarayanan et al., 2009; cited from earlier work
# KCa2 = system: KCa2; design: method as in Coleman et al., 2014; conditions: ref Coleman et al., 2014; read-out: Potency of KCa2 activation; cited from earlier work
# KCa2.3 = system: KCa2.3; design: method as in Coleman et al., 2014; conditions: ref Coleman et al., 2014; read-out: Potency of KCa2.3 activation; cited from earlier work
# [4] = target: T2, KCa3.1 S181A-L185A double mutant (Homo sapiens, UniProt O15554+P0DP23, L185A/S181A); experiment: Inside-out patch-clamp calcium concentration-response; assay type: cell-based
# T2 construct: expressed in transfected cells; host or cells: CHO cells, transient transfection
# Experimental: (§1) All experiments were performed in either the inside-out or the whole-cell configuration of the patch-clamp technique on either transiently transfected CHO cells or Human Embryonic Kidney (HEK) cell lines stably expressing hKCa3.1 or hKCa2.2 ([Sankaranarayanan et al., 2009]). All cells were cultured in Dulbecco’s modified Eagle’s medium supplemented with 10% fetal calf serum. […]
# (§2) For manual whole-cell experiments, the extracellular solution contained 160 mM NaCl, 4.5 mM KCl, 2 mM CaCl2, 1 mM MgCl2, and 10 mM HEPES (pH 7.4, 300 mOsm). Solutions on the intracellular side contained 154 mM KCl, 10 mM HEPES, 10 mM EGTA, 1.75 mM MgCl2, and 5.9 mM CaCl2 for a calculated free Ca^2+ concentration of 250 nM (pH 7.2, 290 mOsm). […] Intracellular solutions contained 154 mM KCl, 10 mM HEPES, 10 mM EGTA, 1.75 mM MgCl2, and varying amounts of CaCl2 for calculated free Ca^2+ concentrations of […] (pH 7.2, 280–300 mOsm). Free Ca^2+ concentrations were calculated using the July 3, 2009 online version of MaxChelator (https://somapp.ucdmc.ucdavis.edu/pharmacology/bers/maxchelator/webmaxc/webmaxcS.htm) assuming a temperature of 25°C, a pH of 7.2, and an ionic strength of 160 mM. […]
# WT KCa3.1 [5] = target: T1, WT KCa3.1; experiment: as above; assay type: cell-based; design: expressed in transfected cells; host or cells: CHO cells, transient transfection
# Experimental: as §1, §2
structure (smiles),measurement,setting,value
CCn1c(=O)[nH]c2ccccc21 [EBIO],Increase of control current,WT KCa3.1 [1],5–10 fold
same,Selectivity for KCa3.1 over KCa2 channels,[2],5–10 fold
same,Change of activator potency by S372R (KCa3.1) / S632R (KCa2.3) mutation,[3],strong reduction in potency
"O=C1Nc2c(ccc(Cl)c2Cl)C1=NO [NS309, 6,7-dichloro-1H-indole-2,3-dione 3-oxime]",Selectivity for KCa3.1 over KCa2 channels,[2],5–10 fold
same,Change of activator potency by S372R (KCa3.1) / S632R (KCa2.3) mutation,[3],strong reduction in potency
"Nc1nc2c(ccc3ccccc32)s1 [SKA-31, Naphtho[1,2-d]thiazol-2-ylamine]",Activation of KCa3.1 at 10 µM,"KCa3.1; 10 µM, ref Sankaranarayanan et al., 2009",maximally activates
same,Activation of KCa2.2 at 10 µM,KCa2.2,maximally activates
same,Selectivity for KCa3.1 over KCa2 channels,[2],5–10 fold
"Cc1nc2c(ccc3ccccc32)s1 [SKA-74, 2-methylnaphtho[1,2-d]thiazole]",EC50,KCa3.1,~30 µM
same,EC50,KCa2,~30 µM
Nc1nc(-c2cccc3ccccc23)cs1 [SKA-75],EC50,KCa3.1,~30 µM
same,EC50,KCa2.3,~30 µM
Nc1nc(-c2ccc3ccccc3c2)cs1 [SKA-76],EC50,KCa3.1,~50 µM
same,EC50,KCa2.3,~25 µM
[Ca] [calcium],EC50,[4],0.392 µM
same,nH calcium concentration-response,[4],1.39
same,EC50,WT KCa3.1 [5],0.437 µM
same,nH calcium concentration-response,WT KCa3.1 [5],1.98
